Results taken from the METLIN SMRT retention time set (Domingo-Almenara et al. 2019).

Test: gradient 5% acetonitrile 3 min, to 50% in 2 min, to 85% in 15 min, held 3 min, 100 µL/min
Conditions: column: Zorbax Extend-C18 2.1 x 50 mm; eluents: water / acetonitrile, 0.1% formic acid
Outline: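 Pure standards were analyzed in mixtures of ~100 molecules using HPLC coupled to a quadrupole time-of-flight mass spectrometer, in both positive and negative ionization mode. Separation used a Zorbax Extend-C18 column (2.1 × 50 mm, 1.8 μm) at 100 μL/min, with water and acetonitrile each containing 0.1% formic acid. Dead and dwell volumes were 40 μL and 900 μL, and data were collected over 3 months. Retention time was read from computationally picked adduct peaks, each inspected manually.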

| SMILES | RP-LC retention time [s] |
| --- | --- |
| CC(C)c1nnc(-c2cccnc2N2CCN(C(=O)CC3CCCC3)CC2)o1 | 872 |
| CCOC(=O)c1c(C)[nH]c(NC(=O)Nc2ccccc2C)c1C | 912 |
| O=C(CN1CCOCC1)N1CC(c2nc(CCOCC3CC3)no2)C1 | 577 |
| O=C(NC1CC1)c1cc2cc(Cl)ccc2[nH]1 | 809 |
| O=C(CCC1CCCC1)N1CCN(C(=O)c2cc(-c3cccnc3)n[nH]2)CC1 | 652 |
| O=C([C@@H]1C[C@H](F)CN1C(=O)Nc1cccc(C(F)(F)F)c1)N1CCCCC1 | 804 |
| CCN1C=C(C(=O)OCc2cc(F)ccc2F)C(C)=NS1(=O)=O | 975 |
| Cc1ccccc1S(=O)(=O)N1CCC(n2cnnc2C(C)C)CC1 | 738 |
| CCOc1ccc(S(=O)(=O)NCCC(O)C(C)(C)C)cc1F (configuration not stated) | 826 |
| Cc1cc(N2CCN(C(=O)c3ccco3)CC2)nc(N2CCCCC2)n1 | 626 |
| Cc1cccc(NC(=O)N2[C@H]3CC[C@@H]2c2cnc(-c4ccccc4)nc2C3)c1 | 982 |
| CCn1ccc2c(cc(C(=O)Nc3ccc(OC)cc3OC)n2C)c1=O | 692 |
| CC1CCN(S(=O)(=O)c2cc(-c3nnc(C(C)C)o3)co2)CC1 | 964 |
| COc1cc([C@H]2c3cc4c(cc3[C@@H](O)[C@H](CO)[C@H]2C(=O)Nc2ccccc2)OCO4)cc(OC)c1OC | 730 |
| O=C(COc1cccc2c1CCN(Cc1ccc(F)cc1)C2=O)Nc1ccc2c(c1)OCO2 | 846 |
| CCN1C(=O)C2CC3(CCN(C(=O)C4CCCCC4)CC3)CN2C1=O (configuration not stated) | 738 |
| Nc1nc(N)c(-c2cccc(C(F)(F)F)c2)c(Cc2cccc(C(F)(F)F)c2)n1 | 741 |
| CCc1onc(C)c1C1CCCN1C(=O)Nc1ccc(C)c(F)c1 (configuration not stated) | 879 |
| NC1=NC(c2ccc(Cl)cc2)N(c2ccc(S(N)(=O)=O)cc2)C(N)=N1 (configuration not stated) | 629 |
| COc1ccc(-c2cc3c(=O)n(Cc4nc(-c5ccccc5)oc4C)ccn3n2)cc1OC | 966 |
| O=C(Nc1ccccn1)C1CCCN(S(=O)(=O)c2cc(-c3noc(C4CCC4)n3)cs2)C1 (configuration not stated) | 978 |
| COc1cccc(C(=O)COc2cc(O)c3c(=O)cc(-c4ccccc4)oc3c2)c1 | 1170 |

| SMILES | RP-LC retention time [s] |
| --- | --- |
| CC1=NS(=O)(=O)N(Cc2ccccc2)C=C1C(=O)OCc1noc(-c2ccc(C)c(C)c2)n1 | 1220 |
| Cc1ccc(-c2cn3cc(C(=O)NC(C)c4cccnc4)ccc3n2)cc1 (configuration not stated) | 571 |
| CCc1ccc(Oc2cc(N3CCC(C(=O)N4CCN(c5ccccn5)CC4)CC3)ncn2)cc1 | 689 |
| Cc1sc(-c2noc(C3CC3)n2)cc1S(=O)(=O)N1CCC(C(=O)NCc2ccco2)CC1 | 945 |
| COc1ccccc1C(=O)N1CCCC(COc2ccc(C(=O)NC(C)C)cc2)C1 (configuration not stated) | 830 |
| COc1cc(NC(=O)c2cn(-c3cc(N(C)C)ncn3)cn2)cc(OC)c1 | 809 |
| CCc1cc(N2CCN(C(=O)c3ccc4c(c3)OCO4)CC2)nc2nncn12 | 575 |
| O=S(=O)(Cc1ccc(Cl)cc1)N1CCc2nc(-c3ccccc3)ncc2C1 | 1090 |
| COc1ccc(CCC(=O)NCc2cccnc2OC)cc1 | 749 |
| O=S(=O)(c1cccc2cccnc12)N1CCCn2nc(-c3ccncc3)cc2C1 | 610 |
| CCCC(NC(=O)C1CCCN(c2ccc(=O)n(-c3ccc(C)c(Cl)c3)n2)C1)c1cccs1 (configuration not stated) | 1040 |
| CC(C)Oc1ccc(-c2noc(CN3C(=O)C(C)Oc4ccccc43)n2)cc1 (configuration not stated) | 1200 |
| CC(C)c1nncn1C1CCN(S(=O)(=O)Cc2cccc(Cl)c2)CC1 | 736 |
| CCN1C[C@]2(C)CC[C@H](OC)[C@]34C2[C@H](OC(C)=O)[C@@]2(OCO[C@@]25CC(OC)[C@H]2C[C@]3(O)C5[C@H]2OC)C14 (some centres not stated) | 662 |
| COc1cccc2cc(-c3nnc(NC(=O)NC4CCCC4)o3)oc12 | 830 |
| Cc1nn(-c2ccc(C(=O)NCc3ccco3)cc2)cc1NC(=O)C(C)C | 722 |
| CCc1nccn1Cc1nc(-c2cccc(Br)c2)no1 | 685 |
| CCc1ccccc1N(C)C(=O)c1cc2c(=O)n(CC)c3ccccc3n2n1 | 1010 |
| Cc1cc(=O)n(CC(=O)Nc2c(C)cccc2C)c(N2CCOCC2)n1 | 612 |
| Brc1cn2c(Nc3ccc4c(c3)OCCO4)c(-c3ccccc3)nc2cn1 | 916 |
| O=C1CCCC(=O)N1CCS(=O)(=O)NCc1cccc(Oc2ccc(F)cc2)c1 | 840 |
| Cc1nnc(-c2c(S(=O)(=O)NC3CCCCCC3)c(C)n(C)c2C)o1 | 900 |

| SMILES | RP-LC retention time [s] |
| --- | --- |
| CC(C)n1c(=O)sc2cc(S(=O)(=O)N3CCC(C(=O)NC4CCCC4)CC3)ccc21 | 896 |
| O=C(c1ccc2ccccc2n1)N1CCN(c2cc(-c3cccnc3)[nH]n2)CC1 | 602 |
| CC(=O)N1CCc2cc(N3CC(C(=O)Nc4ccc(F)c(Cl)c4)CC3=O)ccc21 (configuration not stated) | 751 |
| CCN1c2cc(Cl)ccc2C(=O)NC12CCN(C(=O)Nc1ccc(OC)cc1C)CC2 | 841 |
| O=C(CC1CCN(C(=O)c2ccc3oc(C4CC4)nc3c2)CC1)NCc1ccco1 | 693 |
| COC(=O)c1cccc(NC(=O)C2CCN(c3c(C#N)cnc4ccccc34)CC2)c1 | 675 |
| COc1ccccc1-c1nc(Cc2noc(-c3cccc(F)c3)n2)c(C)o1 | 1080 |
| COc1ccc2ncc(S(=O)(=O)c3ccc(C)c(Cl)c3)c(OC)c2c1 | 1100 |
| CCOC(=O)c1nc(NCc2ccc3c(c2)OCO3)c2ccccc2n1 | 719 |
| CN(CC1CCOCC1)C(=O)Nc1cc(F)cc(F)c1 | 754 |
| O=C(CCC1CCCC1)NC1CCN(c2ccc(=O)[nH]n2)C1 (configuration not stated) | 649 |
| Cc1sc(NC(=O)CCC2CCCCC2)nc1-c1ccc2c(c1)NC(=O)CO2 | 1060 |
| CCOC(=O)C1CCCN(S(=O)(=O)c2cccc3cccnc23)C1 (configuration not stated) | 798 |
| O=C(Cn1cccc1-c1nc(-c2ccc3c(c2)OCO3)no1)Nc1ccc(Cl)cc1 | 1070 |
| CCOC(=O)c1cccc(NS(=O)(=O)c2cc(-c3cc(C)[nH]n3)ccc2C)c1 | 866 |
| O=C(NCCc1ccco1)C1CCN(Cc2cc3ccccc3n2Cc2ccccc2Cl)CC1 | 841 |
| COc1ccc(N2C=C(C(=O)N3CCOCC3)S(=O)(=O)c3ccc(Cl)cc32)cc1 | 770 |
| Cc1cc(-c2nnc(-c3ccc(F)cc3)o2)c(C)n1CC(=O)NC1CCCC1 | 908 |
| COc1ccc(-c2cc(C(=O)NCCc3c[nH]c4ccccc34)[nH]n2)cc1 | 814 |
| Cc1ccc2[nH]cc(CCN3CC(C(=O)Nc4ccc(C)c(C)c4)CC3=O)c2c1 (configuration not stated) | 910 |
| COc1cccc2cc(C(=O)NCC3CCN(C(=O)c4snnc4C)CC3)oc12 | 697 |
| CCN1C(=O)COc2ccc(-c3noc(-c4ccc(C)c(C)c4)n3)cc21 | 1300 |

| SMILES | RP-LC retention time [s] |
| --- | --- |
| CN(C)c1ccc(-c2noc(-c3nc(-c4ccccc4F)no3)n2)cc1 | 1250 |
| CCOC(=O)Cn1c(C2CC(=O)N(c3cccc(Cl)c3)C2)nc2ccccc21 (configuration not stated) | 872 |
| COc1cc(CNCCc2ccc(S(N)(=O)=O)cc2)ccc1Oc1nnnn1-c1ccccc1 | 672 |
| Cc1c(N2C(=O)C3C4C=CC(C4)C3C2=O)c(=O)n(-c2ccccc2)n1C (configuration not stated) | 615 |
| CCCN1CCN(c2cc(C(=O)O)c3cc(NS(=O)(=O)c4ccc(F)c(F)c4)ccc3n2)CC1 | 651 |
| COc1cccc(NC(=O)Cn2c(=O)n(-c3ccc(F)cc3)c(=O)c3c2cc(C)n3C)c1 | 834 |
| CCN(C(=O)c1ccc(OC)c(OC)c1)c1nc(-c2ccc(Br)cc2)cs1 | 1270 |
| Cc1cnc(C2CN(Cc3cccnc3)C2)n1Cc1ccccc1 | 536 |
| Cc1ccc(CNC(=O)c2ccc3nn(CC(=O)NCCC4=CCCCC4)c(=O)n3c2)cc1 | 857 |
| Cc1ccc(C)c(C(=O)N2CCN(c3cc(-c4cccs4)[nH]n3)CC2)c1 | 847 |
| CC(C)N1C(=O)C2(CCCCC2)C1C(=O)N1CCCCC1 (configuration not stated) | 722 |
| CCCn1cnc2cc(CNC(=O)c3ccc(C(F)(F)F)cc3)ccc21 | 674 |
| O=C(NCC(=O)N1CCOCC1)c1c[nH]c2ccccc12 | 593 |
| CS(=O)(=O)N1CCC(C(=O)Nc2ccccc2Cl)Oc2ccccc21 (configuration not stated) | 935 |
| CCCCCCNCc1ccc2c(c1)n(C)c(=O)n2C | 604 |
| CCOC(=O)c1nc(NCCc2ccccc2)c2ccccc2n1 | 769 |
| COc1ccc(NS(=O)(=O)c2ccc3c(c2)C(=O)N(C)c2ncccc2O3)c(C)c1 | 898 |
| Cc1cc(S(=O)(=O)N2CCC3(CC2)NCCCN=C3NC2CCCC2)ccc1F | 768 |
| CCCc1noc(-c2ccc(-n3ncc(C(=O)N4CCOCC4)c3C)nc2)n1 | 833 |
| COCCCNC(=O)N1CCCN(C2=NS(=O)(=O)C(c3ccc(C)cc3)=C2C)CC1 | 730 |
| Cc1cc(-c2cc(S(=O)(=O)N3CCC(Cc4ccccc4)CC3)c(C)s2)n[nH]1 | 1090 |
